The values that follow come from article PMC11299231 (Steroids, 2024).

The subject of one data set is HT-29. Briefly: Antiproliferative activity assay. The format is cell-based, human. The conditions noted are these: read-out: IC50 ± SEM, HT-29.
For a further data set, the system named is HaCaT. Briefly: Antiproliferative activity assay. The class given is cell-based, human. Conditions: for IC50: 48 h, read-out: IC50 ± SEM, HaCaT.
Another data set relates to PC3 (AR-). Briefly: Antiproliferative activity assay. The format is cell-based, human. The conditions noted are these: for IC50: 48 h, read-out: IC50 ± SEM, PC3 (AR−).
In another data set the test system is M21. Briefly: Antiproliferative activity assay. The class given is cell-based, human. Conditions: read-out: IC50 ± SEM, M21.
The test system of a further data set is T84 wt. Briefly: Antiproliferative activity assay. Conditions: for IC50: 48 h, read-out: IC50 ± SEM, T84 wt. The class given is cell-based, human.
In a further data set the test system is DU145 (AR-). Briefly: Antiproliferative activity assay. The class given is cell-based, human. The conditions noted are these: for IC50: read-out: IC50 ± SEM, DU145 (AR−).
The subject of a further data set is MCF7 (ER + ). Briefly: Antiproliferative activity assay. The format is cell-based, human. Conditions: read-out: IC50 ± SEM, MCF7 (ER + ).
The target of data set [1] is T1, CYP3A4 (Homo sapiens, UniProt P08684). Conditions: read-out: IC50, BFC debenzylation activity of CYP3A4; soluble reconstituted system, 37 °C, BFC substrate.
T1 sequence (P08684 whole entry): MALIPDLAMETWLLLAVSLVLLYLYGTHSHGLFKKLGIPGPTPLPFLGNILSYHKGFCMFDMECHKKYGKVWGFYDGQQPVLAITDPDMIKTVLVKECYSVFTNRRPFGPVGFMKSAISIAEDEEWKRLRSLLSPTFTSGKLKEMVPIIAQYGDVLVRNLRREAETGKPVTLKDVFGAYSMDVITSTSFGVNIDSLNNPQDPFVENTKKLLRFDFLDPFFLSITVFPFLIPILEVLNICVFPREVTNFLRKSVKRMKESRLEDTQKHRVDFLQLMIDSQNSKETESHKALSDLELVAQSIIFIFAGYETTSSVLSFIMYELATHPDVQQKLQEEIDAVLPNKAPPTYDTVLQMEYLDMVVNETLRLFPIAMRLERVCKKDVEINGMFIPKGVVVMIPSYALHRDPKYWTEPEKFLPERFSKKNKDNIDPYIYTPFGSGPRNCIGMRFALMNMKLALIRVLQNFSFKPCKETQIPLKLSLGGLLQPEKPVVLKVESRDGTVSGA
Another data set concerns MDA-MB-231 (ER-). Briefly: Antiproliferative activity assay. The format is cell-based, human. The conditions noted are these: read-out: IC50 ± SEM, MDA-MB-231 (ER−).
Another data set concerns LNCaP (AR + ). Briefly: Antiproliferative activity assay. The class given is cell-based, human. Conditions: read-out: IC50 ± SEM, LNCaP (AR + ); prostate adenocarcinoma cells, 48 h, SRB.
The target in data set [2] is T1, CYP3A4. The conditions noted are these: Soret band blue shift, recombinant CYP3A4.
Setting [3] is: at the maximal concentration tested (5 μM).
[4] abbreviates: at the maximum concentration tested (5 μM).
[5] abbreviates: breast carcinoma cells, 48 h, SRB.

Where two headings read alike, the source gives them in different places.

In the case of `CC(O)(CS(=O)(=O)c1ccc(F)cc1)C(=O)Nc1ccc(C#N)c(C(F)(F)F)c1` (centres unmarked) [Bicalutamide, bicalutamide, reference compound], the IC50 (in general, the point on the concentration scale where inhibition reaches its midpoint) in the data set on HT-29 (Homo sapiens, HT-29, 48 h) stood at 42 ± 2 µM; in the data set on HaCaT (Homo sapiens, HaCaT), 95 ± 5 µM; with PC3 (AR-) (Homo sapiens, PC3/AR), 62 ± 3 µM; with M21 (Homo sapiens, M21, 48 h) it was 49 ± 1 µM; in the data set on T84 wt (Homo sapiens), 56 ± 2 µM; in the data set on DU145 (AR-) (Homo sapiens, DU-145, 48 h), 52 ± 1 µM.
For `C[C@]12CC[C@H]3[C@@H]([C@H](C/C=C/Cn4cc([C@]5(O)CC[C@H]6[C@@H]7CCc8cc(O)ccc8[C@H]7CC[C@@]65C)nn4)CC4=CC(=O)CC[C@@]43C)[C@@H]1CC[C@@H]2O` [Compound 1, (E)-17β-hydroxy-7α-{4-[4-(estradiol-17α-yl)-[1,2,3]triazol-1-yl]-but-2-enyl}−4-androsten-3-one], the IC50 was 3.5 ± 0.1 µM in the data set with HT-29 (colon carcinoma cells, 48 h, SRB); over 5 µM in the data set on HaCaT (normal immortalized human keratinocytes, SRB); over 5 µM with PC3 (AR-) (prostate adenocarcinoma cells, SRB); 2.3 ± 0.1 µM in the data set on M21 (melanoma cells, 48 h, SRB); 4.9 ± 0.4 µM in the data set with MCF7 (ER + ) (setting [5]); over 5 µM in the data set on T84 wt (colon adenocarcinoma cells, SRB). Moreover, the IC50 is over 5 µM at CYP3A4 [1]; over 5 µM in the data set on MDA-MB-231 (ER-) (setting [5]); over 5 µM in the data set with LNCaP (AR + ); over 5 µM with DU145 (AR-) (prostate adenocarcinoma cells, 48 h, SRB). Moreover, the “antiproliferative activity on HaCaT cells” value in the data set with HaCaT (setting [3]) was “inactive”. Also, the “antiproliferative effect on PC3 (AR-) cells” value in the data set with PC3 (AR-) (setting [4]) is on record as “no effect”. Further, the “antiproliferative activity on T84 wt cells” value with T84 wt (setting [3]) is “inactive”. For the same compound, in the data set with DU145 (AR-) (setting [4]), the “antiproliferative effect on DU145 (AR-) cells” value was “no effect”. On CYP3A4 [2], the high-spin shift is reported as 23%.
Turning to `CC/C(=C(\c1ccc(O)cc1)c1ccc(OCCN(C)C)cc1)c1ccccc1` [Compound 4-OHT, 4-hydroxytamoxifen, reference compound], the IC50 with HT-29 (Homo sapiens, HT-29, 48 h) turned out to be 0.9 ± 0.2 µM; with HaCaT (Homo sapiens, HaCaT), 10.4 ± 0.6 µM; in the data set on PC3 (AR-) (Homo sapiens, PC3/AR), 13 ± 1 µM; with M21 (Homo sapiens, M21, 48 h), 4.2 ± 0.2 µM; in the data set on MCF7 (ER + ) (Homo sapiens, MCF7, 48 h), 0.013 ± 0.005 µM; with T84 wt (Homo sapiens), 6.9 ± 0.3 µM. The IC50 in the data set on MDA-MB-231 (ER-) (Homo sapiens, MDA-MB-231, 48 h) was found to be 7 ± 1 µM; in the data set with DU145 (AR-) (Homo sapiens, DU-145, 48 h), 13 ± 1 µM.
